The results in this text go back to patent US5061695A, “Antitumor substance BE-12406” (Banyu Pharmaceutical Co., Ltd., priority 1989, dated 1991).

Series [1] concerns human colon cancer cell line LS180. The series can be described thus: Cancer cell growth inhibition, LS180 (sulforhodamine B). Type of series: cell-based. To be noted: LS180, 72 hours, 37° C.; for IC50: Homo sapiens. The protocol:
(§1) For the assessment of the inhibitory activity of BE-12406A, B, X1 and X2 against human cancer cells, in vitro tests were carried out. As the test cells, human colon cancer cell lines DLD-1 and LS180 and human lung cancer cell line PC13 were used. The cell culture medium was 10% fetal calf serum-RPMI medium for DLD-1 and LS180, and 10% fetal calf serum-RPMI-1640 medium for PC13. First, each of BE-12406A, B, X1 and X2 was dissolved in dimethyl sulfoxide and the solution was serially diluted with PBS (phosphate-buffered saline) to prepare test solutions. The cancer cell growth inhibition assay was performed as follows. Thus, 100 μl of a cell culture medium containing 3×10^3 cancer cells was distributed into a 96-well microtiter plate and incubated under 5% CO2 at 37° C. for 24 hours. Then, 11 μl of the above test solutions were added and the incubation was further carried out under 5% CO2 at 37° C. for an additional 72 hours. The cells were then fixed with 50% trichloroacetic acid and stained with 0.4% sulforhodamine B. From the stained cells, the dye was extracted with 10 mM Tris solution and the absorbance at 540 nm was measured and compared with the control.

Another series is described as follows: Solubility. Type of series: physicochemical. To be noted: for Solubility in organic solvents: dimethyl sulfoxide and other organic solvents.
In series [2] the test system is human colon cancer cell line DLD-1. The series can be described thus: Cancer cell growth inhibition, DLD-1 (sulforhodamine B). Type of series: cell-based. To be noted: DLD-1, 72 hours, 37° C. The procedure:
as §1

Series [3] has as its system human lung cancer cell line PC13. The series can be described thus: Cancer cell growth inhibition, PC13 (sulforhodamine B). Type of series: cell-based. The settings on record: PC-13, PC13, 72 hours, 37° C. The protocol: as §1
For another series, the system named is human cancer cells. Nature of the series: In vitro growth inhibition of human cancer cells DLD-1, LS180 and PC13 (overall statement). Type of series: cell-based. The settings on record: DLD-1, LS180, PC13; 72 hours, 37° C. The protocol:
as §1

The test system of another series is P388 tumor cells. The series can be described thus: In vitro growth inhibition of P388 tumor cells (overall statement). Type of series: cell-based, mouse. The settings on record: 72 hours, 37° C. The procedure: (§2) In vitro activity tests were performed for evaluating the inhibitory activities of the antitumor substances BE-12406A and B against mouse tumor cells. In the in vitro antitumor assay using P388 tumor cells, the antitumor substance BE-12406A or B was first dissolved in dimethyl sulfoxide and the solution was serially diluted with a cell culture medium containing 20% of dimethyl sulfoxide (20% DMSO-RPMI-1640 medium). Then, 2 μl of each dilution was added to 200 μl of a cell culture medium (10% fetal calf serum-RPMI-1640 medium) containing 2.5×10^4 tumor cells and the mixture was incubated under 5% CO2 at 37° C. for 72 hours. The viable cells were then counted with a Coulter counter. The result was compared with the control data. […] The corresponding values for P388/V cells were 0.2 and 7 μM, respectively.

Another series deals with L1210 cells. The series can be described thus: In vitro growth inhibition of L1210 cells (Coulter counter). Type of series: cell-based, mouse. The settings on record: 37° C.; for growth inhibition of L1210 cells (in words): 72 hours; for IC50: Mus musculus, L1210, 72 hours, read-out: IC50, 50% inhibitory concentration, L1210. The procedure: (§3) Then, the in vitro inhibitory activity of BE-12406A and B was assayed using HeLa cells, which are human cancer cells, and L1210 cells which are mouse leukemia cells.
The growth inhibition assay using L1210 cells was performed as follows. Thus, antitumor substance BE-12406A or B in a concentration series was added to 200 μl of a cell culture medium (10% fetal calf serum-RPMI-1640) containing 4.5×10^3 L1210 cells and the mixture was incubated under 5% CO2 at 37° C. for 72 hours. The surviving suspended cells were counted with a Coulter counter and the result was compared with the control.

Another series deals with P388/A cells. Nature of the series: In vitro growth inhibition of P388/A cells (adriamycin-resistant). Type of series: cell-based, mouse. The settings on record: for IC50: Mus musculus, P388/A (adriamycin-resistant), read-out: IC50, 50% inhibitory concentration, P388/A; for inhibition of P388/A cells (in words): adriamycin-resistant. The protocol: as §2
A further series relates to P388/S tumor cells. The series can be described thus: In vitro growth inhibition of P388/S tumor cells (Coulter counter). Type of series: cell-based. The settings on record: Mus musculus, 72 hours, 37° C., read-out: IC50, concentration causing 50% inhibition of P388/S cell growth. The protocol:
as §2
(§4) The P388/S tumor cell line is one of the common mouse leukemia cell lines, and the P388/V line is a strain of P388 leukemia cell which has acquired resistance to the anticancer agent vincristine.

A short description of series [4]: Acute toxicity in mice, single intraperitoneal dosing. Type of series: in vivo, mouse (ICR. The settings on record: 100 mg/kg, ICR female mice.
A further series relates to S-180 ascites tumor. Nature of the series: Antitumor effect on transplanted mouse S-180 ascites tumor (survival). Type of series: in vivo. The settings on record: i.p.; for MST (mean survival time): days 1, 4, 7, 9 and 13, female ICR mice; for MST (% T/C), (treated MST/control MST) × 100: ≥ 125 = marked antitumor effect. The procedure:
In this assay using mice, 10^6 (lethal dose) S-180 tumor cells pre mouse were intrapetitoneally administered and the 5% DMSO-PBS (phosphate Buffered Saline solution of BE-12406A in a dilution series (1:2, 1:4, 1:8, etc.) was intraperitoneally administered. The results are summarized in Table 3.
^1 Inoculum: 10^6 ascites tumor cells, intraperitoneal
^2 Host: Female ICR mice
^3 Treatment schedule: BE12406A was administered intraperitoneally on
^4 MST: Mean survival time (in days)
^5 % T/C: (treated MST/control MST) × 100
^6 Criteria: When % T/C ≥ 125, the test compound was considere
to produce a marked antitumor effect at the particular concentration.

Another series has as its system HeLa cells. The series can be described thus: In vitro growth inhibition of HeLa cells (Crystal Violet). Type of series: cell-based, human. The settings on record: 72 hours, 37° C.; for IC50: Homo sapiens, HeLa, read-out: IC50, 50% inhibitory concentration, HeLa. The procedure: as §3
Thus, antitumor substance BE-12406A or B in a concentration series was added to 200 μl of a cell culture medium (10% fetal calf serum-MEM medium) containing 4×10^3 HeLa cells and the mixture was incubated under 5% CO2 at 37° C. for 72 hours. The surviving adherent cells were fixed with 10% formalin and stained with 0.01% Crystal Violet. Using a 1:1 (v/v) mixture of ethylene glycol and ethanol, the dye was extracted from the stained cells and the absorbance at 590 nm was measured and compared with the control.

A further series concerns P388/V cells. Nature of the series: In vitro growth inhibition of P388/V cells (vincristine-resistant). Type of series: cell-based. To be noted: Mus musculus, 72 hours, 37° C., read-out: IC50, 50% inhibition of P388/V cell growth. The procedure:
as §2, §4

Some results are limits rather than exact numbers.

As to `COc1cc(C)cc2c(=O)oc3c4cccc(OC5OC(C)C(O)C(O)C5O)c4c(O)cc3c12` (centres unmarked) [BE-12406X1], the IC50 in series [1] came out at 36.3 µM; in series [2] it was 91.9 µM; in series [3], 115 µM. For the same compound, the “inhibition of proliferation of LS180 (in words)” value in series [1] is recorded as “markedly inhibited proliferation”. The “Solubility in organic solvents” value in “Solubility” (dimethylformamide) is “soluble”. For the same compound, the Solubility in water result in the series “Solubility” is on record as “Sparingly soluble”. The “growth inhibition of human cancer cells (in words)” value in the series with human cancer cells is reported as “inhibit the growth”.
As to `COc1cc(C)cc2c(=O)oc3c4cccc(O)c4c(OC4OC(C)C(O)C(O)C4O)cc3c12` (centres unmarked) [BE-12406A], in the series on P388 tumor cells, the “growth inhibition of P388 tumor cells (in words)” value is given as “markedly inhibit the growth”. Further, the “growth inhibition of L1210 cells (in words)” value in the series on L1210 cells is listed as “inhibited growth”. Further, the IC50 in the series with L1210 cells was determined as 9.6 µM; in the series with P388/A cells, 0.9 µM; in series [1], 12 µM; in the series with P388/S tumor cells, 0.8 µM; in [2], 18.4 µM; in the series on HeLa cells, 11 µM. Further, the IC50 in [3] was 20.7 µM; with P388/V cells, 0.2 µM. Further, in the series on P388/A cells, the “inhibition of P388/A cells (in words)” value is “inhibited”. Besides, the “inhibition of proliferation of LS180 (in words)” value in [1] is given as “markedly inhibited proliferation”. Further, in [4], the “acute toxicity, death on day 5” value is on record as “no death was found”. Further, the “MST (mean survival time)” value with S-180 ascites tumor (2.5 mg/kg/injection) was 12.0 days; with S-180 ascites tumor (5 mg/kg/injection), 13.0 days; in the series with S-180 ascites tumor (10 mg/kg/injection), 15.0 days; with S-180 ascites tumor (20 mg/kg/injection), more than 30.0 days; with S-180 ascites tumor (40 mg/kg/injection), more than 30.0 days. Moreover, the “MST (% T/C), (treated MST/control MST) × 100” value in the series on S-180 ascites tumor (2.5 mg/kg/injection) is listed as 120 % T/C; with S-180 ascites tumor (5 mg/kg/injection), 130 % T/C; with S-180 ascites tumor (10 mg/kg/injection), 150 % T/C; in the series on S-180 ascites tumor (20 mg/kg/injection), more than 300 % T/C; in the series with S-180 ascites tumor (40 mg/kg/injection) it was more than 300 % T/C. The “antitumor effect on transplanted S-180 tumor cells (in words)” value with S-180 ascites tumor (mice) is recorded as “showed an antitumor effect”. The “Solubility in organic solvents” value in the series “Solubility” (tetrahydrofuran) is given as “readily soluble”. Further, the Solubility in water result in the series “Solubility” is reported as “Sparingly soluble”. Also, the “growth inhibition of HeLa cells (in words)” value with HeLa cells is given as “inhibited growth”. Besides, in the series with human cancer cells, the “growth inhibition of human cancer cells (in words)” value was “inhibit the growth”.
As to `COc1cc(C)cc2c(=O)oc3c4cccc(O)c4c(O)cc3c12` [BE-12406X2], the IC50 was 311 µM in series [1], more than 311 µM in [2] and more than 311 µM in series [3]. Also, the “Solubility in organic solvents” value in “Solubility” (dimethylformamide) is “soluble”. In addition, the Solubility in water entry in “Solubility” is on record as “Sparingly soluble”. Further, in the series on human cancer cells, the “growth inhibition of human cancer cells (in words)” value is “inhibit the growth”.
As to `Cc1cc(O)c2c(c1)c(=O)oc1c3cccc(O)c3c(OC3OC(C)C(O)C(O)C3O)cc12` (centres unmarked) [BE-12406B], the “growth inhibition of P388 tumor cells (in words)” value with P388 tumor cells is listed as “markedly inhibit the growth”. Further, in the series with L1210 cells, the “growth inhibition of L1210 cells (in words)” value is listed as “inhibited growth”. Besides, the IC50 is 60 µM in the series with L1210 cells; 11 µM in the series on P388/A cells; 88.1 µM in [1]; 7 µM in the series on P388/S tumor cells; more than 220 µM in series [2]; 20 µM in the series with HeLa cells. In addition, the IC50 was determined as 161 µM in [3] and 7 µM with P388/V cells. In the series on P388/A cells, the “inhibition of P388/A cells (in words)” value is “inhibited”. The “Solubility in organic solvents” value in “Solubility” (tetrahydrofuran) is reported as “readily soluble”. The Solubility in water entry in “Solubility” was “Sparingly soluble”. In addition, the “growth inhibition of HeLa cells (in words)” value in the series with HeLa cells is “inhibited growth”. In the series on human cancer cells, the “growth inhibition of human cancer cells (in words)” value is recorded as “inhibit the growth”.
